Columns and labels:
Test in all cases: competitive isoTOP-ABPP, MDA-MB-231 soluble proteome
Format in all cases: binding
MAP2K6 = target: T1, MAP2K6 (Homo sapiens, UniProt P52564); conditions: 100 μM LDE, 60 min; peptide MC*DFGISGYLVDSVAK
T1 construct: directly in native proteomes; endogenous in cells; host or cells: MDA-MB-231
T1 sequence (P52564 1-334): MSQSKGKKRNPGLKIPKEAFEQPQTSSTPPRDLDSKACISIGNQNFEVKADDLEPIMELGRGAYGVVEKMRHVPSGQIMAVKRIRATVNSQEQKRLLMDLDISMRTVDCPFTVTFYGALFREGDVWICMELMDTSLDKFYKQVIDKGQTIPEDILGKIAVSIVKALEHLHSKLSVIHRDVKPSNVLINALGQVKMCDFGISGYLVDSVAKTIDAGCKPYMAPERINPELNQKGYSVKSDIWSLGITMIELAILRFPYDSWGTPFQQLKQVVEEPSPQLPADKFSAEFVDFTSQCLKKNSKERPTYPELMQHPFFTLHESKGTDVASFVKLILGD

PEC1 = target: T2, PEC1 (Homo sapiens, UniProt O75521); conditions: 100 μM LDE, 60 min; peptide WLSDEC*TNAVVNFLSR
T2 construct: directly in native proteomes; endogenous in cells; host or cells: MDA-MB-231
T2 sequence (O75521 39-394): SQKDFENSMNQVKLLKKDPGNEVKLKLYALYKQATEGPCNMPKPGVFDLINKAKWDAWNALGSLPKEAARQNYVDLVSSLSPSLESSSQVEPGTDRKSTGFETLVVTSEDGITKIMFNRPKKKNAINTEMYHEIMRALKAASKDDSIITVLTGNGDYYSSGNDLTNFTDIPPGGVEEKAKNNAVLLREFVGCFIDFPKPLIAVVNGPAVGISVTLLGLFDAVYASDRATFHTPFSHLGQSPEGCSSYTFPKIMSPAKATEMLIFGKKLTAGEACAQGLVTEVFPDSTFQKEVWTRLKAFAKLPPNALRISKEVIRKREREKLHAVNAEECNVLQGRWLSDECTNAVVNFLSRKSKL

WDR45L = target: T3, WDR45L (Homo sapiens, UniProt Q5MNZ6); conditions: 100 μM LDE, 60 min; peptide C*NYLALVGGGK
T3 construct: directly in native proteomes; endogenous in cells; host or cells: MDA-MB-231
T3 sequence (Q5MNZ6 whole entry): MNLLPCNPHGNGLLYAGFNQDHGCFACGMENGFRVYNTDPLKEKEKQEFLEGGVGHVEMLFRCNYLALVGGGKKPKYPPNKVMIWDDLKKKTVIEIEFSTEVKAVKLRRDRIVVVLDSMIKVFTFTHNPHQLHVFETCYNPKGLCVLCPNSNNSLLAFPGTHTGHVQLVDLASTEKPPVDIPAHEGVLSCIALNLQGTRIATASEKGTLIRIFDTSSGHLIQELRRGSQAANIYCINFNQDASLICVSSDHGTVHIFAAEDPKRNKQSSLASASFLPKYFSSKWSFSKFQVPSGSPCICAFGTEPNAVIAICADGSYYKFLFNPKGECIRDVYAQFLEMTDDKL

HPCA = target: T4, HPCA (Homo sapiens, UniProt P84074); conditions: 100 μM LDE, 60 min; peptide LLQC*DPSSASQF
T4 construct: directly in native proteomes; endogenous in cells; host or cells: MDA-MB-231

In the case of `CCCCC/C=C/C=C1/C(=O)C=C[C@@H]1C/C=C\CCCC(=O)O` [PGJ2, 15-deoxy-Δ12,14-prostaglandin J2], the “R value (isoTOP-ABPP ratio heavy/light) for IA-labeled cysteine of MAP2K6” value (MAP2K6) is reported as 7.43, the “R value (isoTOP-ABPP ratio heavy/light) for IA-labeled cysteine of PEC1” value (PEC1) is reported as 8.23 and the “R value (isoTOP-ABPP ratio heavy/light) for IA-labeled cysteine of WDR45L” value (WDR45L) is reported as 6.45. For the same compound, the “R value (isoTOP-ABPP ratio heavy/light) for IA-labeled cysteine of HPCA” value (HPCA) was 7.21.
`CCCCCC(O)/C=C/C=O` (stereo not drawn) [4-HNE, 4-Hydroxynonenal] was tested, and the “R value (isoTOP-ABPP ratio heavy/light) for IA-labeled cysteine of MAP2K6” value (MAP2K6) was 1.9, the “R value (isoTOP-ABPP ratio heavy/light) for IA-labeled cysteine of PEC1” value (PEC1) was 1.86 and the “R value (isoTOP-ABPP ratio heavy/light) for IA-labeled cysteine of WDR45L” value (WDR45L) was 3.34. For the same compound, the “R value (isoTOP-ABPP ratio heavy/light) for IA-labeled cysteine of HPCA” value (HPCA) was 2.17.
In the case of `CCCCCCCCCCCCC/C=C/C=O` [2-HD, 2-trans-hexadecenal], the “R value (isoTOP-ABPP ratio heavy/light) for IA-labeled cysteine of MAP2K6” value (MAP2K6) is reported as 1.15, the “R value (isoTOP-ABPP ratio heavy/light) for IA-labeled cysteine of PEC1” value (PEC1) is reported as 1.06 and the “R value (isoTOP-ABPP ratio heavy/light) for IA-labeled cysteine of WDR45L” value (WDR45L) is reported as 1.06. For the same compound, the “R value (isoTOP-ABPP ratio heavy/light) for IA-labeled cysteine of HPCA” value (HPCA) was 1.13.
